Source: publication PMC4138103 (PLoS ONE, 2014)
Several values for one entry are separate records, joined by “and”; a condition that tells them apart may be missing. Identical values can stand only once.

Test system: Sprague-Dawley rats
Experiment: Retinoid analyses in liver, serum and kidney
Format: in vivo, Rattus norvegicus
Set-up: key to Dose response, Liver Retinol: D: significant dose response (for results see Table 2 in the text); T: significant trend; key to Kidney Retinyl esters, Dose response / Liver All-trans RA, Dose response / Kidney All-trans RA, Dose response / Serum Retinol, Dose response: D: significant dose response (for results, see Table 2); T: significant trend
Method: Retinoids in liver, serum, and kidney were analyzed according to Schmidt et al.. The polar retinoids 9-cis-retinoic acid (9-cis-RA), 13-cis-retinoic acid (13-cis-RA), 13-cis-4-oxo-retinoic acid (13-cis-4-o-RA), 9-cis-4-oxo-13,14-dihydro-retinoic acid (9-cis-4-o-13,14-dh-RA), all-trans retinoic acid (all-trans RA) and the apolar retinoids retinol and retinyl palmitate were extracted by a single liquid-extraction, separated from each other via solid-phase extraction using an aminopropyl phase, and then injected onto two different HPLC systems that were coupled with UV detection. […] The limits of detection (LOD) for all-trans RA and 9c-4o-13,14-dh-RA were 0.7 and 1.0 pmol/g tissue, and 0.3 and 0.6 pmol/ml serum, respectively. Retinol and retinyl palmitate were separated on a J'sphere ODS-H80 (4.6×150 mm, 4 µm particle size) obtained from YMC (Schermbeck, Germany), and were detected at 325 nm. The LOD for retinol and retinyl palmitate were 5.6 and 5.5 pmol/g tissue, and 4.2 and 4.2 pmol/ml serum, respectively.
Data were also analyzed using the BMD method, which is based on dose-response modeling of the full data set using a nested family of exponential and Hill models. The analyses were done on data of males and females combined, using sex as a covariate. […] In that case, different Critical Effect Doses (CEDs) and CEDs at the lowest bound of the confidence interval (CED-L) were generated for each sex. If no difference between sexes is detected, a CED and CED-Ls for the combined data is generated. However, this was also done if the curve fits are close, and separate analyses for males and females were then performed manually. CEDs and CED-Ls were calculated at the predefined Critical Effect Size (CES) of 5% (EFSA standard) or 10%.

[1] = females, CES 5%, total dose based
[2] = females, CES 10%, total dose based
[3] = females, adipose tissue concentration based
[4] = males, total dose 0-1700 mg/kg bw
[5] = males, total dose 3 mg/kg bw, group mean, N=5
[6] = males, total dose 10 mg/kg bw, group mean, N=5
[7] = males, total dose 30 mg/kg bw, group mean, N=5

## Clc1cc(Cl)c(-c2cc(Cl)c(Cl)c(Cl)c2Cl)cc1Cl [PCB 180, 2,2′,3′,4,4′,5,5′-heptachlorobiphenyl]
[1]
  Kidney all-trans RA amount, CED-L: 319 mg/kg bw
  Kidney all-trans RA concentration, CED: 457 mg/kg bw
  Kidney all-trans RA concentration, CED-L: 321 mg/kg bw
  Kidney retinol amount, CED: 355 mg/kg bw
  Kidney retinol amount, CED-L: 221 mg/kg bw
  Kidney retinol concentration, CED: 335 mg/kg bw
  Kidney retinol concentration, CED-L: 216 mg/kg bw
  Liver 9c-4o-13,14-dh-RA amount, CED: 13.1 mg/kg bw
  Liver 9c-4o-13,14-dh-RA amount, CED-L: 8.29 mg/kg bw
  Liver 9c-4o-13,14-dh-RA conc., CED: 12 mg/kg bw and 12.2 mg/kg bw
  Liver 9c-4o-13,14-dh-RA conc., CED-L: 8.77 mg/kg bw
  Liver retinol concentration, CED: 156 mg/kg bw
  Liver retinol concentration, CED-L: 119 mg/kg bw
  Liver retinyl esters amount, CED: 254 mg/kg bw
  Liver retinyl esters amount, CED-L: 189 mg/kg bw
  Liver retinyl esters concentration, CED: 122 mg/kg bw
  Liver retinyl esters concentration, CED-L: 104 mg/kg bw
  Serum retinol concentration, CED: 400 mg/kg bw
  Serum retinol concentration, CED-L: 242 mg/kg bw
[2]
  Kidney all-trans RA amount, CED: 965 mg/kg bw
  Kidney all-trans RA amount, CED-L: 625 mg/kg bw
  Kidney all-trans RA concentration, CED: 892 mg/kg bw
  Kidney all-trans RA concentration, CED-L: 626 mg/kg bw
  Kidney retinol amount, CED: 694 mg/kg bw
  Kidney retinol amount, CED-L: 431 mg/kg bw
  Kidney retinol concentration, CED: 655 mg/kg bw
  Kidney retinol concentration, CED-L: 421 mg/kg bw
  Liver 9c-4o-13,14-dh-RA amount, CED: 27.2 mg/kg bw
  Liver 9c-4o-13,14-dh-RA amount, CED-L: 17.2 mg/kg bw
  Liver 9c-4o-13,14-dh-RA conc., CED: 25.3 mg/kg bw
  Liver 9c-4o-13,14-dh-RA conc., CED-L: 18.2 mg/kg bw
  Liver retinol concentration, CED: 374 mg/kg bw
  Liver retinol concentration, CED-L: 263 mg/kg bw
  Liver retinyl esters amount, CED: 522 mg/kg bw
  Liver retinyl esters amount, CED-L: 388 mg/kg bw
  Liver retinyl esters concentration, CED: 252 mg/kg bw
  Liver retinyl esters concentration, CED-L: 214 mg/kg bw
  Serum retinol concentration, CED: 781 mg/kg bw
  Serum retinol concentration, CED-L: 474 mg/kg bw
[3]
  Kidney all-trans RA concentration, CED: 2930 µg/g lipid
  Kidney retinol concentration, CED: 2060 µg/g lipid
  Liver 9c-4o-13,14-dh-RA concentration, CED: 55.5 µg/g lipid and 56 µg/g lipid
  Liver retinol concentration, CED: 1000 µg/g lipid
  Liver retinyl ester concentration, CED: 793 µg/g lipid
  Serum retinol concentration, CED: 2470 µg/g lipid
females, controls vs high dose, fitted model
  Serum retinol concentration, Maximum response: 23.1%
males
  Liver retinol concentration, max. decrease: 47%
  Liver retinyl ester concentration, max. decrease: 63%
[4]
  Dose response, Kidney Retinol: D, T
  Dose response, Kidney Retinyl esters: D, T
  Dose response, Liver All-trans RA: D, T
  Dose response, Liver Retinol: D
  Dose response, Liver Retinyl esters: D, T
  Kidney Retinol, Dose response: D, T
  Kidney Retinyl esters, Dose response: D
  Liver All-trans RA, Dose response: D
  Liver Retinol, Dose response: D, T
  Liver Retinyl esters, Dose response: D, T
[5]
  Kidney All-trans RA: 35.9 pmol
  Kidney Retinol: 14.2 nmol
  Kidney Retinyl esters: 4.99 nmol
  Liver 9-cis-4o-13,14-dh RA: 218 pmol
  Liver All-trans RA: 544 pmol
  Liver Retinol: 0.28 µmol
  Liver Retinyl esters: 11.5 µmol
[6]
  Kidney All-trans RA: 36.9 pmol
  Kidney Retinol: 17.6 nmol
  Kidney Retinyl esters: 8.73 nmol
  Liver All-trans RA: 632 pmol
  Liver Retinol: 0.32 µmol
  Liver Retinyl esters: 12.5 µmol
males, total dose 30 mg/kg bw
  Kidney All-trans RA: 31.8 pmol/g
  Kidney Retinol: 16.9 nmol/g
  Kidney Retinyl esters: 7.83 nmol/g
  Liver All-trans RA: 44.5 pmol/g
  Liver Retinol: 20.5 nmol/g
  Liver Retinyl esters: 0.77 µmol/g
  Serum Retinyl esters: 46.5 pmol/mL
males, total dose 30 mg/kg bw, Liver
  Liver Retinyl esters: 46.5 pmol/mL
males, total dose 30 mg/kg bw, Liver, n=4
  Liver Retinol: 1.65 pmol/mL
[7]
  Kidney All-trans RA: 33.3 pmol
  Kidney Retinol: 17.5 nmol
  Kidney Retinyl esters: 8.12 nmol
  Liver All-trans RA: 623 pmol
  Liver Retinol: 0.29 µmol
  Liver Retinyl esters: 10.7 µmol
males, total dose 30 mg/kg bw, n=4
  Serum Retinol: 1.65 pmol/mL
males, total dose 100 mg/kg bw
  Kidney All-trans RA: 34.8 pmol/g
  Kidney Retinol: 16.3 nmol/g
  Kidney Retinyl esters: 8.27 nmol/g
  Liver All-trans RA: 44.4 pmol/g
  Liver Retinol: 15.7 nmol/g
  Liver Retinyl esters: 0.62 µmol/g
  Serum Retinyl esters: 84.5 pmol/mL
